IC50 data for 6 compounds are collected here from ChEMBL document CHEMBL5532728, “Novel Tyrosine Kinase 2 Inhibitors for Treating Autoimmune and Inflammatory Diseases” (ACS Med Chem Lett, 2024).

The assay has as its target Non-receptor tyrosine-protein kinase TYK2 (Homo sapiens, UniProt P29597). Put plainly: Inhibition of 10-His tagged recombinant TYK2 JH2 domain (575 to 876 residues) (unknown origin) incubated for 60 mins by TR-FRET assay. Background: TR-FRET usually uses a lanthanide donor and a delayed reading to cut background.

Non-receptor tyrosine-protein kinase TYK2, sequence (P29597 whole entry, the tested form may be a part): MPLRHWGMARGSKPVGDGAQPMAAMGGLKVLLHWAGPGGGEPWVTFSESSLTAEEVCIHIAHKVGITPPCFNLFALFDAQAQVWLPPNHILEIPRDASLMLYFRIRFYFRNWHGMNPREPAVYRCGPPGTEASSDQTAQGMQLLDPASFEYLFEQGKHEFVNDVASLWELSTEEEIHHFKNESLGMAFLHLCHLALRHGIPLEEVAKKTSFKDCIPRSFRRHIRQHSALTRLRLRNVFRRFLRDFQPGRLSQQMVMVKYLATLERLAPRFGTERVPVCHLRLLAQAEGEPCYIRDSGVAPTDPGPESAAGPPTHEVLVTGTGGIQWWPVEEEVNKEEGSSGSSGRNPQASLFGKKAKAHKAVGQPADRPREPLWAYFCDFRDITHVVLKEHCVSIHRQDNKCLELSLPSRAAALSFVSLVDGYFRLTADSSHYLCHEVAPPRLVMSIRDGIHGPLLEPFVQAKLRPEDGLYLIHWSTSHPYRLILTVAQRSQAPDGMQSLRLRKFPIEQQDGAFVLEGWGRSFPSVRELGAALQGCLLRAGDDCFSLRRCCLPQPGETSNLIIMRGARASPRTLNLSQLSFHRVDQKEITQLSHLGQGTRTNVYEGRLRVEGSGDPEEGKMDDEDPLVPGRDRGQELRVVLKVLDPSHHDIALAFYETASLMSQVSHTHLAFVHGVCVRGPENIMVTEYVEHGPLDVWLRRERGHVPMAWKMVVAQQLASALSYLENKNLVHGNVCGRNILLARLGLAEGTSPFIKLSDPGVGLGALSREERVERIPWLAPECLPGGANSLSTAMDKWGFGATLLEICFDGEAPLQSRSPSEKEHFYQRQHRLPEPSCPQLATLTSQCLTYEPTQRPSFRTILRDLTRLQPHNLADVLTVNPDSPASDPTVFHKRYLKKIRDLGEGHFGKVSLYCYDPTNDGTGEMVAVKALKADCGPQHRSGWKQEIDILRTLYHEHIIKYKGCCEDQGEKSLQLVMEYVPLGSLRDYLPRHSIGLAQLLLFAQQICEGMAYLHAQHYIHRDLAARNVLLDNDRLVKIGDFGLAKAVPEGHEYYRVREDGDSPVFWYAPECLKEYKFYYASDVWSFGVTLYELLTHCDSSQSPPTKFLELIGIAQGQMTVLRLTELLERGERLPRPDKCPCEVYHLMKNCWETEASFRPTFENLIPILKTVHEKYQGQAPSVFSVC

One may read the IC50 as the concentration that gives 50% inhibition. For the compound `CC(=O)Nc1cc2c(cn1)C1(CC1)CN2c1cc(C)nc(C2CCC2)n1`, the IC50 was not above 10 nM.

Turning to `CC(=O)Nc1cc2c(cn1)C1(CC1)CN2c1cc(NC2CCSC2)nc(C(C)(F)F)n1` (stereo unspecified), the IC50 was not above 10 nM.

With `CSc1nc(C)cc(N2CC3(CC3)c3cnc(NC(C)=O)cc32)n1`, the half-inhibitory concentration (IC50) was not above 10 nM.

Take `CC(=O)Nc1cc2c(cn1)C1(CC1)CN2c1nc(C2CCOC2)c(C)s1` (stereo unspecified): the IC50 is not above 10 nM.

Regarding `CC(=O)Nc1cc2c(cn1)C1(CC1)CN2c1cc(-c2ncn(C)n2)nc(C(C)(F)F)n1`, the IC50 is not above 10 nM.

For `CC(=O)Nc1cc2c(cn1)C1(CC1)CN2c1cccc(S(C)(=O)=O)n1`, the 50% inhibitory concentration (IC50) was not above 10 nM.
